Experimental data published in paper PMC12229235 (Science signaling, 2024).

Biological target: AKT3 (Homo sapiens, UniProt Q9Y243)
Assay: LANCE Ultra TR-FRET kinase assay with Ulight-crosstide substrate
Assay type: biochemical

Chain of AKT3 (Q9Y243 2-479): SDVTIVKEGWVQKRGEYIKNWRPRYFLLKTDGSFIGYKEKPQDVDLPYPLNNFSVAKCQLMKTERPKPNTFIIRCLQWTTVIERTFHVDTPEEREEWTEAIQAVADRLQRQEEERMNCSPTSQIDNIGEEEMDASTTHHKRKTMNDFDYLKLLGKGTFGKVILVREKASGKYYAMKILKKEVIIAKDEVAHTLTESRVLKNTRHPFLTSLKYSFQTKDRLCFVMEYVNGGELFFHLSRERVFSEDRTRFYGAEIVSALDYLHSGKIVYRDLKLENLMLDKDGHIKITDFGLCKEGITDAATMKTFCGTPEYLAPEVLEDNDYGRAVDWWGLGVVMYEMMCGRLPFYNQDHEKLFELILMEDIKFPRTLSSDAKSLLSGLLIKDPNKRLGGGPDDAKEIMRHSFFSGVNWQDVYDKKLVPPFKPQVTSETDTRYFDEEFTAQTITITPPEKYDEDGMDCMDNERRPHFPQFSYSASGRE
Chain of AKT3 (O15530 whole entry partner): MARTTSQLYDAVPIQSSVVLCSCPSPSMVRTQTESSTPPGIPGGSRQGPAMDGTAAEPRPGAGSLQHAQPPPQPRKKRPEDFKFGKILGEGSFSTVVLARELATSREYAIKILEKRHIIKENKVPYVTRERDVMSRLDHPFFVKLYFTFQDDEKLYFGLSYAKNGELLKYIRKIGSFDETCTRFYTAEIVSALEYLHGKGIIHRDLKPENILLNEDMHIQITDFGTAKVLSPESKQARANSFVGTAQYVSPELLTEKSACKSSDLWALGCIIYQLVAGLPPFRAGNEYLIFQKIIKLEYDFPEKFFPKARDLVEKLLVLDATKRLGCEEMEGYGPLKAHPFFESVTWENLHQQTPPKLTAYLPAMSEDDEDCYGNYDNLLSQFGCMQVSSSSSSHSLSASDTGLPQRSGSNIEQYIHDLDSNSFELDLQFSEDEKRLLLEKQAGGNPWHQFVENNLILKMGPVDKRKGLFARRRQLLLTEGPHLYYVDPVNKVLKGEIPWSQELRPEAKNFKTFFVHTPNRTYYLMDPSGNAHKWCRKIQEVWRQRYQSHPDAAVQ

CC(=O)N(C)[C@H]1CC[C@H](CC(=O)Nc2cc(-c3ccccc3)c(-c3ccc(C4(N)CCC4)cc3)cn2)CC1 [AKT3i, N-(5-(4-(1-aminocyclobutyl)phenyl)-4-phenylpyridin-2-yl)-2-((1r,4r)-4-(N-methylacetamido)cyclohexyl) acetamide]
IC50: 13 nM
